Measured values taken from the SangsterLogP compilation.

Assay: method code SF-GLC, from DOI: 10.1016/0048-3575(78)90090-1

Structure (SMILES)	logP
ClC1CC(Cl)C(Cl)C(Cl)C1Cl (stereo not given)	3.53
ClC1C(Cl)C(Br)C(Cl)C(Cl)C1Br (stereo not given)	3.98
CC1C(Cl)C(Cl)C(C)C(Cl)C1Cl (stereo not given)	4.4
ClC1C(Cl)C(Cl)C(Br)C(Cl)C1Cl (stereo not given)	3.74
FC(F)(F)COC1C(Cl)C(Cl)C(Cl)C(Cl)C1Cl (stereo not given)	4.06
COC1C(Cl)C(Cl)C(OC)C(Cl)C1Cl (stereo not given)	3.15
CC1C(Cl)C(Cl)C(Cl)C(Cl)C1Cl (stereo not given)	4.04
ClC1CC(Cl)C(Cl)CC1Cl (stereo not given)	2.82
CC(=O)Oc1c(Cl)c(Cl)c(Cl)c(Cl)c1Cl	3.4
OCC1C(Cl)C(Cl)C(Cl)C(Cl)C1Cl (stereo not given)	2.94
COC1C(Cl)C(Cl)C(Cl)C(OC)C1OC (stereo not given)	1.87
COC1C(Cl)C(Cl)C(Cl)C(Cl)C1OC (stereo not given)	2.55
ClC1C(Cl)C(Cl)C(Br)C(Br)C1Cl (stereo not given)	3.88
FC1C(Cl)C(Cl)C(Cl)C(Cl)C1Cl (stereo not given)	3.19
CCOC1C(Cl)C(Cl)C(Cl)C(Cl)C1Cl (stereo not given)	3.69
COC1C(Cl)C(Cl)C(Cl)C(Cl)C1Cl (stereo not given)	3.14
ClC1C(Cl)C(Cl)C(I)C(Cl)C1Cl (stereo not given)	3.96
COC1CC(Cl)C(Cl)C(Cl)C1Cl (stereo not given)	2.99
FC1C(Cl)C(Cl)C(Cl)C(Cl)C1Br (stereo not given)	3.28
OC1C(Cl)C(Cl)C(Cl)C(Cl)C1Cl (stereo not given)	2.54
